Test results taken from ChEMBL document CHEMBL3044688, “Degradation of the Herbicides Thiobencarb, Butachlor and Molinate by a Newly Isolated Aspergillus niger” (J Pestic Sci, 2004).

Experiments:
Assay type in all cases: ADME, organism-based
Aspergillus niger [1] = assay: Drug degradation in Aspergillus niger van Tieghem grown on sucrose-containing Czapek-Dox medium at 100 ppm after 7 days; conditions: 168 h
Aspergillus niger [2] = assay: Drug degradation in Aspergillus niger van Tieghem grown on sucrose-containing Czapek-Dox medium at 20 ppm after 7 days; conditions: 168 h
Aspergillus niger [3] = assay: Drug degradation in Aspergillus niger van Tieghem grown on Czapek-Dox medium at 20 ppm after 36 hr at 30 degC in presence of 0.5 to 2 g/l NaNO3
Aspergillus niger [4] = assay: Drug degradation in Aspergillus niger van Tieghem grown on Czapek-Dox medium at 20 ppm after 36 hr at 30 degC in presence of 0.01 g/l NaNO3
Aspergillus niger [5] = assay: Drug degradation in Aspergillus niger van Tieghem at 20 ppm after 36 hr at 30 degC
Aspergillus niger [6] = assay: Drug degradation in Aspergillus niger van Tieghem grown on Czapek-Dox medium at 20 ppm after 36 hr at 30 degC in presence of 1 g/l NaNO3

Q: For `CCNc1nc(NC(C)C)nc(SC)n1` [AMETRYNE], which Stability (Aspergillus niger [1]) is on record?
A: The Stability was “Stable”.

Q: For `CCCCOCN(C(=O)CCl)c1c(CC)cccc1CC` [BUTACHLOR], which Stability (Aspergillus niger [2]) is on record?
A: Its Stability is “Unstable”.

Q: With `CCSC(=O)N1C=CC=CC=C1` [S-ETHYLAZEPINE-1-CARBOTHIOATE] as the compound, how does the Stability (Aspergillus niger [1]) read?
A: The Stability was “Unstable”.

Q: Which Stability (Aspergillus niger [3]) does the source give for `CCN(CC)C(=O)SCc1ccc(Cl)cc1` [THIOBENCARB] here?
A: Its Stability is “Unstable”.

Q: And the Stability (Aspergillus niger [4])?
A: Its Stability is “Unstable”.

Q: And the Stability (Aspergillus niger [5])?
A: The Stability was “Unstable”.

Q: And the Stability (Aspergillus niger [6])?
A: The Stability was “Unstable”.
